{
  "source": "patent US9603866B2",
  "about": "“Anti-fatigue composition, formulation and use thereof” (priority 2010, dated 2017)",
  "key": {"[1]": {"experiment": "Animal weight during the 30-day gavage of the burden swimming study", "type": "in vivo, mice", "details": "gavage once a day, 30 days", "protocol": "(§1) 1. Experimental animals: ICR mice, male, 18-22 g, provided by Shanghai Slack laboratory animal Co. Ltd., license number: SCXK (Shanghai) 2007-0005;\n(§2) 3. Experimental groups: the mice are randomly divided into 19 groups by weight, 20 mice per each group; the detailed groups are as follows:\n(§3) 0.2 ml/10 g of drug is administrated by gavage every day; for normal control group, 0.2 ml/10 g of distilled water is administrated by gavage every day; once a day, 30 days in total."}, "ICR mice": {"system": "ICR mice", "experiment": "Mice burden swimming test", "type": "in vivo", "details": "for Swimming time / Change rate of swimming time: gavage once a day, 30 days; for Swimming time: 6% body weight load; for Change rate of swimming time: vs normal control", "protocol": "According to the Technical Standards for Testing & Assessment of Health Food issued by the Ministry of Health, P. R. China, function and biochemistry indexes assessment of the mixture of 20(S)-protopanoxadiol and lycium barbarum polysaccharide on the function of relieving physical fatigue is conducted; the detailed method is given as follows:\nas §1\n20(S)-protopanoxadiol: provide by Shanghai Innovative Research Center of Traditional Chinese Medicine, batch number: 20050606-1, purity: 94%; lycium barbarum polysaccharide: provided by Shanghai KangZhou Fungi Extract Co. Ltd., polysaccharide content≧30%.\nTo 20(S)-protopanoxadiol is added a small amount of 0.3% CMC-Na, followed by grinding to form a suspension and diluting with CMC-Na to a desired concentration. Then lycium barbarum polysaccharide is added to the 20(S)-protopanoxadiol suspension to form a composition with a certain concentration.\nas §2, §3\n30 minutes after the last time of administrating drug, the end of the tail of each mouse is loaded with copper wires corresponding to 6% of its body weight, then the mouse is put in a swimming box to swim, the time from start of swimming to death of the mouse is recorded, i.e. the mice burden swimming time; the water depth in the swimming box is 30 cm or more, and water temperature is 23+1.0° C.\n5. Statistical data processing: t-test is conducted to calculate P value, Jin Zhengjun formula is used to conduct combined medication analysis.\nOther than the combined dosage of Experimental example 1, the range of combined dosage is enlarged to conduct multi-batch experiments. The experimental animals, drugs and method are the same as those of Experimental example 1, and the final results are shown in Table 2: […]"}},
  "note": "Marks after values point to notes of the source that are not given here.",
  "data": [
    {"smiles": "CC(C)=CCC[C@](C)(O)[C@H]1CC[C@]2(C)[C@@H]1[C@H](O)C[C@@H]1[C@@]3(C)CC[C@H](O)C(C)(C)[C@@H]3CC[C@]12C", "note": "[20(S)-protopanoxadiol]", "values": [
      {"measurement": "Animal weight start/finish (finish)", "setting": "[1]; 0.01 mg/kg", "result": "21.6/39.2 g"},
      {"measurement": "Animal weight start/finish (finish)", "setting": "[1]; 0.5 mg/kg", "result": "21.8/38.8 g"},
      {"measurement": "Animal weight start/finish (finish)", "setting": "[1]; 1 mg/kg", "result": "21.7/38.7 g"},
      {"measurement": "Animal weight start/finish (finish)", "setting": "[1]; 5 mg/kg", "result": "21.8/38.9 g"},
      {"measurement": "Swimming time", "setting": "ICR mice; 0.01 mg/kg", "result": "640 ± 275", "unit": "s"},
      {"measurement": "Change rate of swimming time", "setting": "ICR mice; 0.01 mg/kg", "result": 1.5, "unit": "%"},
      {"measurement": "Swimming time", "setting": "ICR mice; 0.5 mg/kg", "result": "660 ± 268", "unit": "s"},
      {"measurement": "Change rate of swimming time", "setting": "ICR mice; 0.5 mg/kg", "result": 1.9, "unit": "%"},
      {"measurement": "Swimming time", "setting": "ICR mice; 1 mg/kg", "result": "658 ± 296", "unit": "s"},
      {"measurement": "Change rate of swimming time", "setting": "ICR mice; 1 mg/kg", "result": 2.2, "unit": "%"},
      {"measurement": "Swimming time", "setting": "ICR mice; 5 mg/kg", "result": "640 ± 286", "unit": "s"},
      {"measurement": "Change rate of swimming time", "setting": "ICR mice; 5 mg/kg", "result": 1.5, "unit": "%"},
      {"measurement": "Swimming time change rate", "setting": "ICR mice; Table 2, 0.01 mg/kg", "result": 1.5, "unit": "%"},
      {"measurement": "Swimming time change rate", "setting": "ICR mice; Table 2, 0.5 mg/kg", "result": 1.9, "unit": "%"},
      {"measurement": "Swimming time change rate", "setting": "ICR mice; Table 2, 1 mg/kg", "result": 2.2, "unit": "%"},
      {"measurement": "Swimming time change rate", "setting": "ICR mice; Table 2, 3 mg/kg", "result": 1.6, "unit": "%"},
      {"measurement": "Swimming time change rate", "setting": "ICR mice; Table 2, 6.25 mg/kg", "result": 1.4, "unit": "%"},
      {"measurement": "Swimming time change rate", "setting": "ICR mice; Table 2, 12.5 mg/kg", "result": 3.4, "unit": "%"},
      {"measurement": "Swimming time change rate", "setting": "ICR mice; Table 2, 25 mg/kg", "result": 6.9, "unit": "%"},
      {"measurement": "Swimming time change rate", "setting": "ICR mice; Table 2, 50 mg/kg", "result": "12.4* %"},
      {"measurement": "Effect on mice swimming time (in words)", "setting": "ICR mice; Table 2, single use, compared with normal control group (P>0.05)", "result": "no significant effect on mice swimming time"}
    ]}
  ]
}
